In patent US5436254A, “Carbostyril derivatives” (Otsuka Pharmaceutical Company, Ltd., priority 1989, dated 1995):

Target: V1 receptor (Rattus norvegicus, UniProt P30560)
Experiment: biochemical
Assay type: binding
Settings: not given

Chain of V1 receptor (P30560 whole entry): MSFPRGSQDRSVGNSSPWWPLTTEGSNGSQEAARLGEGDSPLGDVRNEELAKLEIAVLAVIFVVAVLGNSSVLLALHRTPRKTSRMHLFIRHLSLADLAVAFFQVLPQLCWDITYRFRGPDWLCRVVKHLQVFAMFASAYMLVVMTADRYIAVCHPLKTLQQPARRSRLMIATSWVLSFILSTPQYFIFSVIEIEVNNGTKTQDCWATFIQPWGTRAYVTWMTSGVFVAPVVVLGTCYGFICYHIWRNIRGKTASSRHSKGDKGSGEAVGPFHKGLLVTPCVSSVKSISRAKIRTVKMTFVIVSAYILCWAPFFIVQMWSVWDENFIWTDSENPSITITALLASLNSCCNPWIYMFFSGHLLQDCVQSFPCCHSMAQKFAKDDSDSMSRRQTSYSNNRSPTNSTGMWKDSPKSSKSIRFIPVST

Compound | IC50
CCOc1ccc(C(=O)N2CCC(N3C(=O)CCc4ccccc43)CC2)c(OC)c1 [Example 52, 1-[1-(2-Methoxy-4-ethoxybenzoyl)-4-piperidinyl]-3,4-dihydrocarbostyril] | 80 nM
O=C(c1ccc(OCCCCCS(=O)(=O)c2ccc([N+](=O)[O-])cc2)cc1)N1CCC(N2C(=O)CCc3ccccc32)CC1 [Example 285, 1-{1-(4-[5-(4-Nitrophenylsulfonyl)pentyloxy]benzoyl)-4-piperidinyl}-3,4-dihydrocarbostyril] | 230 nM
CC(=O)NCC(O)CCCCOc1ccc(C(=O)N2CCC(N3C(=O)CCc4ccccc43)CC2)cc1 (centres unmarked) [Example 177, 1-{1-[4-(5-Hydroxy-6-acetylaminohexyloxy)-benzoyl]-4-piperidinyl}-3,4-dihydrocarbostyril] | 130 nM
CNC(=O)CCCOc1ccc(C(=O)N2CCC(N3C(=O)CCc4ccccc43)CC2)cc1 [Example 121, 1-{1-[4-(3-Methylaminocarbonylpropoxy)benzoyl]-4-piperidinyl}-3,4-dihydrocarbostyril] | 460 nM
O=C(c1ccc(OCCCCCN2CCCC(O)C2)cc1)N1CCC(N2C(=O)CCc3ccccc32)CC1 (centres unmarked) [Example 240, 1-{1-(4-[5-(3-Hydroxy-1-piperidinyl)pentyloxy]benzoyl)-4-piperidinyl}-3,4-dihydrocarbostyril] | 48 nM
CCOc1cc(OC)ccc1C(=O)N1CCC(N2C(=O)CCc3ccccc32)CC1 [Example 59, 1-[1-(2-Ethoxy-4-methoxybenzoyl)-4-piperidinyl]-3,4-dihydrocarbostyril] | 200 nM
CN(CCCOc1ccc(C(=O)N2CCC(N3C(=O)CCc4ccccc43)CC2)cc1)C(=O)c1ccccc1 [Example 92, 1-[1-{4-[3-(N-Methyl-N-benzoylamino)propoxy]benzoyl}-4-piperidinyl)-3,4-dihydrocarbostyril] | 1200 nM
O=C(c1ccc(OCCCCC(O)CN2CCC[C@H]2CO)cc1)N1CCC(N2C(=O)CCc3ccccc32)CC1 (some centres unmarked) [Example 220] | 20 nM
CC[N+](C)(CC)CC(CCCCOc1ccc(C(=O)N2CCC(N3C(=O)CCc4ccccc43)CC2)cc1)OC (centres unmarked) [Example 301, 1-{1-[4-(5-Methoxy-6-diethylmethylammoniumhexyloxy)benzoyl]-4-piperidinyl}-3,4-dihydrocarbostyril.iodine] | 47 nM
CC(=O)OCCN(CCCCCOc1ccc(C(=O)N2CCC(N3C(=O)CCc4ccccc43)CC2)cc1)CCOC(C)=O [Example 249, 1-{1-(4-[5-(N,N-Di(2-acetoxyethyl)amino)pentyloxy]benzoyl)-4-piperidinyl}-3,4-dihydrocarbostyril] | 45 nM
CN(C)CCCOc1ccc(C(=O)N2CCC(N3C(=O)CCc4ccccc43)CC2)cc1 [Example 17, 1-{1-[4-(3-Dimethylaminopropoxy)benzoyl]-4-piperidinyl}-3,4-dihydrocarbostyril] | 430 nM
CN(C)C(=O)C1CCN(C(=O)CCCCCOc2ccc(C(=O)N3CCC(N4C(=O)CCc5ccccc54)CC3)cc2)CC1 [Example 276, 1-{1-(4-[5-(4-Dimethylaminocarbonyl-1-piperidinylcarbonyl)pentyloxy]benzoyl)-4-piperidinyl}-3,4-dihydrocarbostyril] | 110 nM
O=C(c1ccc(OCCCCC(O)CN2CCN(Cc3ccccc3)CC2)cc1)N1CCC(N2C(=O)CCc3ccccc32)CC1 (centres unmarked) [Example 172, 1-(1-[4-(5-Hydroxy-6-(4-benzyl-1-piperazinyl)hexyloxy]benzoyl]-4-piperidinyl)-3,4-dihydrocarbostyril.dioxalate] | 43 nM
NC(=O)CCCNc1ccc(C(=O)N2CCC(N3C(=O)CCc4ccccc43)CC2)cc1 [Example 88, 1-{1-[4-(3-Carbamoylpropylamino)benzoyl]-4-piperidinyl)-3,4-dihydrocarbostyril] | 1000 nM
O=C(c1ccc(OCCCCCN2CCN(c3ccccn3)CC2)cc1)N1CCC(N2C(=O)CCc3ccccc32)CC1 [Example 234, 1-{1-(4-[5-(4-[2-Pyridyl]-1-piperazinyl)pentyloxy]benzoyl)-4-piperidinyl}-3,4-dihydrocarbostyril] | 180 nM
CN(CCO)CC(O)CCCCOc1ccc(C(=O)N2CCC(N3C(=O)CCc4ccccc43)CC2)cc1 (centres unmarked) [Example 204, 1-{1-[4-(5-Hydroxy-6-[N-(2-hydroxyethyl)-N-methylamino]hexyloxy)benzoyl]-4-piperidinyl}-3,4-dihydrocarbostyril] | 59 nM
O=C(c1ccc2ccccc2c1)N1CCC(N2C(=O)CCc3ccccc32)CC1 [Example 116, 1-[1-(2-Naphthylcarbonyl)-4-piperidinyl]-3,4-dihydrocarbostyril] | 760 nM
CCN(CC)CC(O)CCCCOc1ccc(C(=O)N2CCC(N3C(=O)CCc4ccc(F)cc43)CC2)c(OC)c1 (centres unmarked) [Example 185, 7-Fluoro-1-{1-[4-(5-Hydroxy-6-diethylaminohexyloxy)-2-methoxybenzoyl]-4-piperidinyl}-3,4-dihydrocarbostyril] | 10 nM

Compound | IC50
O=C(c1ccc(CCCCO)cc1)N1CCC(N2C(=O)CCc3ccccc32)CC1 [Example 123, 1-{1-[4-(4-Hydroxybutyl)benzoyl]-4-piperidinyl}-3,4-dihydrocarbostyril] | 350 nM
CC(=O)N1CCN(CCCOc2ccc(C(=O)N3CCC(N4C(=O)CCc5ccccc54)CC3)cc2)CC1 [Example 134, 1-[1-{4-[3-(4-Acetyl-1-piperazinyl)propoxy]-benzoyl}-4-piperidinyl]-3,4-dihydrocarbostyril] | 160 nM
O=C(NCCCCOc1ccc(C(=O)N2CCC(N3C(=O)CCc4ccccc43)CC2)cc1)C1CCNCC1 [Example 231, 1-[1-(4-[4-(4-Piperidinylcarbonylamino)butoxy]benzoyl)-4-piperidinyl)-3,4-dihydrocarbostyril] | 41 nM
O=C(c1ccc(C2CCCCC2)cc1)N1CCC(N2C(=O)CCc3ccccc32)CC1 [Example 112, 1-[1-(4-Cyclohexylbenzoyl)-4-piperidinyl]-3,4-dihydrocarbostyril] | 970 nM
COc1ccc(C(=O)N2CCC(N3C(=O)CCc4ccccc43)CC2)c(OCCCO)c1 [Example 63, 1-{1-[2-(3-Hydroxypropoxy)-4-methoxybenzoyl]-piperidinyl}-3,4-dihydrocarbostyril] | 270 nM
O=C(c1ccc(OCCCCCS(=O)(=O)c2cc[n+]([O-])cc2)cc1)N1CCC(N2C(=O)CCc3ccccc32)CC1 [Example 288, 1-{1-(4-[5-(Pyridine-N-oxide-4-ylsulfonyl)pentyloxy]benzoyl)-4-piperidinyl}-3,4-dihydrocarbostyril] | 48 nM
CC(C)=CCCC(C)=CC(=O)N1CCC(N2C(=O)CCc3ccccc32)CC1 [Example 114, 1-[1-(2,6-Dimethyl-1,5-heptadiene-1-carbonyl)-4-piperidinyl]-3,4-dihydrocarbostyril] | 1500 nM
CC[S+]([O-])CCCOc1ccc(C(=O)N2CCC(N3C(=O)CCc4ccccc43)CC2)cc1 (centres unmarked) [Example 127, 1-{1-[4-(Ethylsulfinylpropoxy)benzoyl]-4-piperidinyl}-3,4-dihydrocarbostyril] | 610 nM
COc1cc(OCCCCC(=O)N2CCS(=O)(=O)CC2)ccc1C(=O)N1CCC(N2C(=O)CCc3ccccc32)CC1 [Example 296, 1-{1-(2-Methoxy-4-[4-(4,4-dioxothiomorpholino)carbonylbutyloxy]benzoyl]-4-piperidinyl}-3,4-dihydrocarbostyril] | 73 nM
CC(C)NCC(O)CCCCOc1ccc(C(=O)N2CCC(N3C(=O)CCc4ccccc43)CC2)cc1 (centres unmarked) [Example 217, 1-{1-[4-(5-Hydroxy-6-isopropylaminohexyloxy)benzoyl]-4-piperidinyl}-3,4-dihydrocarbostyril] | 53 nM
CC(=O)Nc1ccc(C(=O)NCCCCCOc2ccc(C(=O)N3CCC(N4C(=O)CCc5ccccc54)CC3)cc2)cc1 [Example 259, 1-{1-(4-[5-(4-Acetylaminobenzoyl)aminopentyloxy]benzoyl)-4-piperidinyl}-3,4'-dihydrocarbostyril] | 110 nM
COCCOc1cc(OC)ccc1C(=O)N1CCC(N2C(=O)CCc3ccccc32)CC1 [Example 70, 1-{1-[2-(2-Methoxyethoxy)-4-methoxybenzoyl]-4-piperidinyl}-3,4-dihydrocarbostyril] | 320 nM
CCOc1ccc(C(=O)N2CCC(N3C(=O)CCc4c(F)cccc43)CC2)c(OC)c1 [Example 306, 5-Fluoro-1-[1-(2-methoxy-4-ethoxybenzoyl)-4-piperidinyl}-3,4-dihydrocarbostyril] | 84 nM
CN(C)CCCCc1ccc(C(=O)N2CCC(N3C(=O)CCc4ccccc43)CC2)cc1 [Example 180, 1-{1-[4-(4-Dimethylaminobutyl)benzoyl]-4-piperidinyl}-3,4-dihydrocarbostyril] | 400 nM
O=C(c1ccc(OCCCCC(O)CN2CCCCC2)cc1)N1CCC(N2C(=O)CCc3ccccc32)CC1 (centres unmarked) [Example 303, 1-{1-[4-(5-Hydroxy-6-(1-piperidinyl)hexyloxy)benzoyl]-4-piperidinyl}-3,4-dihydrocarbostyril] | 38 nM
CCN(CC)CC(O)CCCCOc1ccc(C(=O)N2CCC(N3C(=O)CCc4c(F)cc(F)cc43)CC2)c(OC)c1 (centres unmarked) [Example 201, 5,7-Difluoro-1-(1-[2-methoxy-4-(5-hydroxy-6-diethylaminohexyloxy)benzoyl]-4-piperidinyl}-3,4-dihydrocarbostyril] | 8 nM
O=C(c1ccc(OCCCCN2CCN(Cc3ccccc3)CC2)cc1)N1CCC(N2C(=O)CCc3ccccc32)CC1 [Example 156, 1-{1-[4-[(4-Benzyl-1-piperazinyl)butoxy]benzoyl]-4-piperidinyl}-3,4-dihydrocarbostyril] | 180 nM
CC(=O)NCC(CCCCOc1ccc(C(=O)N2CCC(N3C(=O)CCc4ccccc43)CC2)cc1)OC(C)=O (centres unmarked) [Example 176, 1-{1-[4-(5-Acetoxy-6-acetylaminohexyloxy)benzoyl]-4-piperidinyl}-3,4-dihydrocarbostyril] | 130 nM

Same assay, conditions: [H]3-Arg-vasopressin 2×10^-10 M, rat liver plasma membrane, 37° C., 10 minutes, pH 8.0; read-out: IC50

Compound | IC50
1-{1-[4-[4-(Benzimidazol-1-yl)thiobutoxy]benzoyl]-4-piperidinyl}-3,4-dihydrocarbostyril [Example 164] | 780 nM

Same assay, conditions: read-out: IC50

Compound | IC50
CCOc1ccc(C(=O)N2CCC(n3c(=O)ccc4ccccc43)CC2)c(OC)c1 [Example 82, 1-[1-(2-Methoxy-4-ethoxybenzoyl)-4-piperidinyl]carbostyril] | 330 nM
